Results as given in the NIST ThermoML archive (doi:10.1021/je400423u).

Assay: xn = mol fraction of the nth substance listed
Conditions: 101 kPa, Liquid; for mass density: Vibrating tube method; for viscosity: Falling or rolling sphere viscometry

CC(C)CO [2-methyl-1-propanol] + CCC(C)O
Conditions | mass density [kg/m3] | viscosity [mPa·s]
303.15 K, x2 = 0.1009 | 794.484 | –
303.15 K, x2 = 0.2 | 794.891 | –
303.15 K, x2 = 0.3008 | 795.309 | –
303.15 K, x2 = 0.4 | 795.723 | –
303.15 K, x2 = 0.5002 | 796.151 | –
303.15 K, x2 = 0.5999 | 796.585 | –
303.15 K, x2 = 0.7004 | 797.029 | –
303.15 K, x2 = 0.8007 | 797.475 | –
303.15 K, x2 = 0.9005 | 797.918 | –
308.15 K, x2 = 0.1009 | 790.501 | 2.443
308.15 K, x2 = 0.2 | 790.872 | 2.386
308.15 K, x2 = 0.3008 | 791.253 | 2.337
308.15 K, x2 = 0.4 | 791.633 | 2.292
308.15 K, x2 = 0.5002 | 792.024 | 2.248
308.15 K, x2 = 0.5999 | 792.423 | 2.206
308.15 K, x2 = 0.7004 | 792.831 | 2.168
308.15 K, x2 = 0.8007 | 793.242 | 2.139
308.15 K, x2 = 0.9005 | 793.65 | 2.127
313.15 K, x2 = 0.1009 | 786.45 | 2.107
313.15 K, x2 = 0.2 | 786.78 | 2.053
313.15 K, x2 = 0.3008 | 787.122 | 2.005
313.15 K, x2 = 0.4 | 787.465 | 1.962
313.15 K, x2 = 0.5002 | 787.818 | 1.92
313.15 K, x2 = 0.5999 | 788.177 | 1.881
313.15 K, x2 = 0.7004 | 788.546 | 1.845
313.15 K, x2 = 0.8007 | 788.917 | 1.816
313.15 K, x2 = 0.9005 | 789.288 | 1.804
318.15 K, x2 = 0.1009 | 782.34 | 1.824
318.15 K, x2 = 0.2 | 782.624 | 1.772
318.15 K, x2 = 0.3008 | 782.922 | 1.727
318.15 K, x2 = 0.4 | 783.222 | 1.685
318.15 K, x2 = 0.5002 | 783.533 | 1.646
318.15 K, x2 = 0.5999 | 783.848 | 1.608
318.15 K, x2 = 0.7004 | 784.171 | 1.575
318.15 K, x2 = 0.8007 | 784.497 | 1.551
318.15 K, x2 = 0.9005 | 784.827 | 1.54
323.15 K, x2 = 0.1009 | 778.155 | 1.59
323.15 K, x2 = 0.2 | 778.391 | 1.544
323.15 K, x2 = 0.3008 | 778.641 | 1.5
323.15 K, x2 = 0.4 | 778.895 | 1.46
323.15 K, x2 = 0.5002 | 779.158 | 1.422
323.15 K, x2 = 0.5999 | 779.423 | 1.387
323.15 K, x2 = 0.7004 | 779.696 | 1.357
323.15 K, x2 = 0.8007 | 779.974 | 1.336
323.15 K, x2 = 0.9005 | 780.258 | 1.326
328.15 K, x2 = 0.1009 | 773.896 | 1.393
328.15 K, x2 = 0.2 | 774.077 | 1.35
328.15 K, x2 = 0.3008 | 774.275 | 1.309
328.15 K, x2 = 0.4 | 774.479 | 1.27
328.15 K, x2 = 0.5002 | 774.689 | 1.235
328.15 K, x2 = 0.5999 | 774.903 | 1.204
328.15 K, x2 = 0.7004 | 775.122 | 1.178
328.15 K, x2 = 0.8007 | 775.348 | 1.161
328.15 K, x2 = 0.9005 | 775.581 | 1.152
333.15 K, x2 = 0.1009 | 769.551 | 1.225
333.15 K, x2 = 0.2 | 769.674 | 1.186
333.15 K, x2 = 0.3008 | 769.816 | 1.148
333.15 K, x2 = 0.4 | 769.965 | 1.112
333.15 K, x2 = 0.5002 | 770.119 | 1.079
333.15 K, x2 = 0.5999 | 770.277 | 1.051
333.15 K, x2 = 0.7004 | 770.441 | 1.029
333.15 K, x2 = 0.8007 | 770.611 | 1.014
333.15 K, x2 = 0.9005 | 770.793 | 1.006
338.15 K, x2 = 0.1009 | 765.116 | 1.082
338.15 K, x2 = 0.2 | 765.18 | 1.047
338.15 K, x2 = 0.3008 | 765.264 | 1.012
338.15 K, x2 = 0.4 | 765.355 | 0.9794
338.15 K, x2 = 0.5002 | 765.452 | 0.9497
338.15 K, x2 = 0.5999 | 765.551 | 0.9246
338.15 K, x2 = 0.7004 | 765.654 | 0.9053
338.15 K, x2 = 0.8007 | 765.765 | 0.8922
338.15 K, x2 = 0.9005 | 765.89 | 0.8861
343.15 K, x2 = 0.1009 | 760.581 | 0.9613
343.15 K, x2 = 0.2 | 760.585 | 0.9301
343.15 K, x2 = 0.3008 | 760.608 | 0.8988
343.15 K, x2 = 0.4 | 760.64 | 0.8691
343.15 K, x2 = 0.5002 | 760.676 | 0.8429
343.15 K, x2 = 0.5999 | 760.714 | 0.8207
343.15 K, x2 = 0.7004 | 760.754 | 0.8035
343.15 K, x2 = 0.8007 | 760.802 | 0.7921
343.15 K, x2 = 0.9005 | 760.867 | 0.7862

CC(C)(C)O [2-methylpropan-2-ol] + CCC(C)O
Conditions | mass density [kg/m3] | viscosity [mPa·s]
308.15 K, x2 = 0 | 770.36 | 2.589
308.15 K, x2 = 0.1002 | 772.862 | 2.511
308.15 K, x2 = 0.2001 | 775.563 | 2.462
308.15 K, x2 = 0.3008 | 778.356 | 2.414
308.15 K, x2 = 0.3999 | 781.092 | 2.368
308.15 K, x2 = 0.5005 | 783.761 | 2.322
308.15 K, x2 = 0.6004 | 786.229 | 2.278
308.15 K, x2 = 0.6999 | 788.492 | 2.237
308.15 K, x2 = 0.8009 | 790.567 | 2.199
308.15 K, x2 = 0.8998 | 792.397 | 2.168
313.15 K, x2 = 0 | 765.07 | 2.089
313.15 K, x2 = 0.1002 | 767.728 | 2.032
313.15 K, x2 = 0.2001 | 770.539 | 2.001
313.15 K, x2 = 0.3008 | 773.423 | 1.97
313.15 K, x2 = 0.3999 | 776.226 | 1.941
313.15 K, x2 = 0.5005 | 778.999 | 1.912
313.15 K, x2 = 0.6004 | 781.558 | 1.886
313.15 K, x2 = 0.6999 | 783.915 | 1.863
313.15 K, x2 = 0.8009 | 786.091 | 1.843
313.15 K, x2 = 0.8998 | 787.978 | 1.828
318.15 K, x2 = 0 | 759.67 | 1.69
318.15 K, x2 = 0.1002 | 762.547 | 1.671
318.15 K, x2 = 0.2001 | 765.501 | 1.651
318.15 K, x2 = 0.3008 | 768.478 | 1.632
318.15 K, x2 = 0.3999 | 771.356 | 1.613
318.15 K, x2 = 0.5005 | 774.194 | 1.596
318.15 K, x2 = 0.6004 | 776.85 | 1.581
318.15 K, x2 = 0.6999 | 779.306 | 1.569
318.15 K, x2 = 0.8009 | 781.558 | 1.56
318.15 K, x2 = 0.8998 | 783.501 | 1.554
323.15 K, x2 = 0 | 754.19 | 1.409
323.15 K, x2 = 0.1002 | 757.329 | 1.393
323.15 K, x2 = 0.2001 | 760.468 | 1.382
323.15 K, x2 = 0.3008 | 763.574 | 1.371
323.15 K, x2 = 0.3999 | 766.546 | 1.36
323.15 K, x2 = 0.5005 | 769.452 | 1.351
323.15 K, x2 = 0.6004 | 772.176 | 1.343
323.15 K, x2 = 0.6999 | 774.689 | 1.338
323.15 K, x2 = 0.8009 | 776.998 | 1.334
323.15 K, x2 = 0.8998 | 778.948 | 1.333
328.15 K, x2 = 0 | 748.62 | –
328.15 K, x2 = 0.1002 | 752.053 | 1.178
328.15 K, x2 = 0.2001 | 755.328 | 1.171
328.15 K, x2 = 0.3008 | 758.481 | 1.164
328.15 K, x2 = 0.3999 | 761.481 | 1.158
328.15 K, x2 = 0.5005 | 764.427 | 1.154
328.15 K, x2 = 0.6004 | 767.214 | 1.151
328.15 K, x2 = 0.6999 | 769.823 | 1.15
328.15 K, x2 = 0.8009 | 772.229 | 1.15
328.15 K, x2 = 0.8998 | 774.252 | 1.153
333.15 K, x2 = 0 | 742.95 | –
333.15 K, x2 = 0.1002 | 746.671 | 1.007
333.15 K, x2 = 0.2001 | 750.068 | 1.003
333.15 K, x2 = 0.3008 | 753.262 | 0.9994
333.15 K, x2 = 0.3999 | 756.271 | 0.9962
333.15 K, x2 = 0.5005 | 759.241 | 0.9947
333.15 K, x2 = 0.6004 | 762.081 | 0.9943
333.15 K, x2 = 0.6999 | 764.795 | 0.996
333.15 K, x2 = 0.8009 | 767.312 | 0.9994
333.15 K, x2 = 0.8998 | 769.418 | 1.004
338.15 K, x2 = 0 | 737.19 | –
338.15 K, x2 = 0.1002 | 741.149 | 0.8692
338.15 K, x2 = 0.2001 | 744.63 | 0.8679
338.15 K, x2 = 0.3008 | 747.865 | 0.8665
338.15 K, x2 = 0.3999 | 750.893 | 0.8654
338.15 K, x2 = 0.5005 | 753.913 | 0.8659
338.15 K, x2 = 0.6004 | 756.832 | 0.8678
338.15 K, x2 = 0.6999 | 759.643 | 0.8713
338.15 K, x2 = 0.8009 | 762.272 | 0.876
338.15 K, x2 = 0.8998 | 764.451 | 0.8813
343.15 K, x2 = 0 | 731.31 | –
343.15 K, x2 = 0.1002 | 735.411 | 0.7586
343.15 K, x2 = 0.2001 | 738.998 | 0.7589
343.15 K, x2 = 0.3008 | 742.315 | 0.7593
343.15 K, x2 = 0.3999 | 745.431 | 0.7601
343.15 K, x2 = 0.5005 | 748.529 | 0.7616
343.15 K, x2 = 0.6004 | 751.539 | 0.7648
343.15 K, x2 = 0.6999 | 754.435 | 0.769
343.15 K, x2 = 0.8009 | 757.148 | 0.7743
343.15 K, x2 = 0.8998 | 759.383 | 0.7798
